In assay [1] the test system is sorbitol accumulation in the sciatic nerve of streptozotocinized (i.e., diabetic) rats. The experiment in a line: sorbitol accumulation in the sciatic nerve of streptozotocinized (diabetic) rats. The class given is in vivo. The following applies: oral; 50 mg/kg body weight; preliminary tests. From the text: (§1) The activity of the compounds of the present invention as agents for the control of chronic diabetic complications may be determined by a number of standard biological or pharmacological tests. Suitable tests include (1) measuring their ability to inhibit the enzyme activity of isolated aldose reductase; (2) measuring their ability to reduce or inhibit sorbitol accumulation in the sciatic nerve of acutely streptozotocinized (i.e. diabetic) rats; (3) measuring their ability to reverse already elevated sorbitol levels in the sciatic nerve and lens of chronic streptozotocin-induced diabetic rats; (4) measuring their ability to prevent or inhibit galactitol formation in the lens of acutely galactosemic rats; and (5) measuring their ability to delay cataract formation and reduce the severity of lens opacities in chronic galactosemic rats. Suitable experimental procedures are described in U.S. Pat. No. 3,821,383 and the references cited therein.
(§2) The substrate employed was partially purified aldose reductase enzyme obtained from calf lens. […] Thus, for example, the compounds may be tested for their ability to reduce or inhibit sorbitol accumulation in the sciatic nerve of streptozotocinized (i.e., diabetic) rats by the procedure essentially described in U.S. Pat. No. 3,821,383. The amount of sorbitol accumulation in the sciatic nerves is measured 27 hours after induction of diabetes. […]

The test system of assay [2] is partially purified aldose reductase enzyme obtained from calf lens. Description: inhibition of aldose reductase enzyme activity (procedure of US 3,821,383 / Hayman et al.). The following applies: compound concentration 10^-4 M. The class given is biochemical.
Excerpt: as §1, §2

As for `O=C1NC(=O)C2(CCCc3ccccc32)O1` (stereo not drawn) [1',2',3',4'-tetrahydro-spiro-[oxazolididine(5,1')naphthalene]-2,4-dione], the “activity in reducing or inhibiting sorbitol accumulation in the sciatic nerve” value in assay [1] is recorded as “no significant activity”. For the same compound, the “percent inhibition of enzyme activity” value in assay [2] is recorded as 75%.
Consider `O=C1NC(=O)C2(CCc3ccccc32)O1` (stereo not drawn) [Spiro-[indane(1,5')oxazolidine]-2',4'-dione], for which the “percent inhibition of enzyme activity” value in assay [2] worked out at 81%.

Values taken from patent publication US4226875A, “Novel spiro-oxazolidinediones” (Pfizer Inc., priority 1979, dated 1980).
